Paper PMC7887271, “Fast acting allosteric phosphofructokinase inhibitors block trypanosome glycolysis and cure acute African trypanosomiasis in mice” (Nature Communications, 2021)
Where “and” joins values, the source holds several entries; their conditions need not be identical. Equal entries are not always repeated.

How the values were obtained:
T. b. brucei GVR35-luc = experiment: Wash-out studies, GVR35; assay type: cell-based; conditions: concentrations greater than 2 to 4 µM, exposure longer than 4-6 hours, 3 days in drug free medium
Procedure: In vitro ‘wash-out’ studies were performed to determine the reversibility of the action of the CTCB compounds on trypanosomes, after a certain exposure time, and thus to assess whether the compounds have a trypanocidal or trypanostatic effect. These experiments were carried out with both the T. b. brucei Lister 427 and T. b. brucei GVR35-luc strains. Trypanosomes at a density of 500,000 cells/ml in culture medium were incubated with CTCB compounds at varying concentrations in 12-well plates in volumes of 1 ml for different periods of time at 37°C. Subsequently, the cultures were centrifuged for 5 min at 2600 x g, the cells washed by re-suspending the pellets in 1 ml medium without inhibitors, centrifuged again and re-suspended in 1 ml fresh medium. The cell suspensions were then incubated under regular culture conditions for 3 days and parasite growth monitored daily by light microscopy.
The results for both strains are similar with no grow-back at concentrations of CTCB compounds greater than 2 to 4 µM with drug exposure longer than 4-6 hours.

CYP2C19 = target: T1, CYP2C19 (Homo sapiens, UniProt P33261); experiment: Inhibition of CYP2C19; assay type: in vitro ADME; conditions: CYP450 isoform inhibition kit (BD Biosciences), probe CEC
T1 construct: purchased BD Biosciences
Procedure: A HepG2 cytotoxicity assay was used to determine a cellular selectivity index. HepG2 cells were seeded into 96-well plates in EMEM medium. Compounds were assessed for their effect upon cellular viability (Supplementary Methods 5.1). Inhibition of CYP450 was determined using kits from BD Biosciences (Supplementary Methods 5.2). Metabolic stability was determined using mouse […] tested at a single concentration of 5 µM. Plasma protein binding was determined using mouse and human plasma at a single concentration of 10 µM (Supplementary Methods 5.4). All PK studies in mice were carried out by Pharmidex (Supplementary Methods 6.1).
The compounds were investigated for their inhibitory effect on cytochrome P450 (CYP450) activity using five CYP450 isoforms (with fluorescent substrates in brackets): 3A4 (two substrates, BFC and DBF), 2D6 (AMMC), 2C9 (MFC), 2C19 (CEC) and 1A2 (CEC). Kits from BD Biosciences were used along with the method described by the manufacturer. […] Fluorescence was measured using a SpectraMax M5 plate reader.

T. b. rhodesiense = experiment: EC50 against in vitro cultured T. b. rhodesiense (STMI); assay type: cell-based; conditions: Trypanosoma brucei
[1] = Mouse hepatocytes intrinsic clearance; assay type: in vitro ADME
From the text: Methods are described in Supplementary Methods 5 and 6. Enzyme assay results are means ± SD in multiple assays. ADME results are averages of n = 2 or 3 measurements in individual assays.

MDCK-MDR1 = conditions: dog
T. b. brucei GVR35-Luc2 = T. b. brucei GVR35-Luc2 time-to-kill assay (luciferin); assay type: cell-based; conditions: for Luminescence, Average / Luminescence, individual replicates: Time to kill assay for GVR35 cells
Procedure: Enzyme activity was measured using an aldolase/TIM linked assay at 25 °C. […] Experiments were carried out in duplicate. Data are presented as mean values ± standard deviation. […] Source data are provided as a Source Data File. b Kill time of CTCB-405 compared with existing HAT drugs in the clinic. […] Over 99% of trypanosomes were killed in under 30 min compared with much slower killing rates for the other drugs. The points on the graph for CTCB-405 were determined from two independent biological replicate experiments with each time point measured twice (using duplicate technical replicates). The ESD for each point on the graph is between 0.7 and 1.4%. For drugs in clinical use each point on the graph is the average of two technical replicates from one experiment (with a maximum difference of 7.8% for any of the points). Source data are provided as a Source Data File.
As predicted from the biology of the BSF that relies wholly on glycolysis for ATP production, inhibition of the pathway results in a very fast TTK. Two experimental methods were used to measure ATP levels as a real-time indicator of viability. For Tb427 parasites, a Cell Titre Glo kit was used and for the TbGVR35 bioluminescent strain, killing was assessed by adding luciferin which requires ATP to produce a luminescent signal (Supplementary Methods 4.3 and 4.4). […] The BSF of T. brucei cannot produce ATP by oxidative phosphorylation and is solely dependent on flux through the glycolytic pathway. The clear correlation between inhibitor dose and reduction in ATP production, as observed in the TTK assays strongly supports the proposed mode of action of the CTCB compounds is by blocking glycolysis. It is a long-established experimental observation that withdrawal of glucose nutrient leads to rapid loss of motility and cell death. It has recently been shown that the BSF of T. brucei can proliferate on high levels of glycerol; however, we have shown that addition of glycerol to the medium has little effect on parasite killing by the CTCB compounds (Supplementary Table 3).
The killing of T. b. brucei GVR35-Luc2 was assessed by adding D-luciferin to live cells resulting in the production of light in the presence of ATP and luciferase activity. Compounds of interest were serially diluted from 16 µM to 0.5 µM in Modified HMI-9 medium and added into sterile white, flat bottom 96-well plate (Greiner Inc.). 32,000 trypanosomes were added to each well. The plates were incubated at 37 °C and 5% CO2. At the end of each incubation, 200 µg/ml of D-luciferin was added to each well and incubated for 10 min. Luminescence was measured using a BMG plate reader and percentage cell viability versus incubation time was determined.

[2] = GVR35 TTK, 24 h incubation, replicate wells

T1 sequence (P33261 whole entry, canonical isoform): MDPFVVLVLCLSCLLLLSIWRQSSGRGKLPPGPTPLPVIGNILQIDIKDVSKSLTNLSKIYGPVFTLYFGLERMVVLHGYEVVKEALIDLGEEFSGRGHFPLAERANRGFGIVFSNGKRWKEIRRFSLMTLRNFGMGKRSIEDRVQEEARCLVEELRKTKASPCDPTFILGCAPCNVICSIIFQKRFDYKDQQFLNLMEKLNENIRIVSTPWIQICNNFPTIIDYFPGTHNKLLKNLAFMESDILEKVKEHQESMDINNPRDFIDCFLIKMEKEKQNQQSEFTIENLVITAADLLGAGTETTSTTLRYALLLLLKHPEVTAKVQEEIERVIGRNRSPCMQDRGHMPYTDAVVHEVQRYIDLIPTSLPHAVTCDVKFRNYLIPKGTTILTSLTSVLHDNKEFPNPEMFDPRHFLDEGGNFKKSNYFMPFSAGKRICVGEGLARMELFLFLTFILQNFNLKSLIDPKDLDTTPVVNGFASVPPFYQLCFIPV

CN(C)CCn1ccc2c(ccn2Cc2ccc(Cl)c(Cl)c2)c1=O [CTCB-405, 1-[(3,4-Dichlorophenyl)methyl]-5-[2-(dimethylamino)ethyl] pyrrolo[3,2-c]pyridin-4-one]
wash-out: grow-back after removal of drug (T. b. brucei GVR35-luc): no grow-back | inhibition at 10 µM (CYP2C19): 64% | EC50 (T. b. rhodesiense): 250 nM | Mouse hepatocytes Clint [1]: 3.7 µL min^−1 per 10^6 cells | MDCK-MDR1 A-B (MDCK-MDR1): 17.6 | MDCK-MDR1 B-A (MDCK-MDR1): 17.2 | trypanosomes killed in under 30 min (T. b. brucei GVR35-Luc2; 4 µM, GVR35 bioluminescent strain): Over 99% | % Cell viability, single replicates (T. b. brucei GVR35-Luc2; 0.5 h): 0.291% and 2.73% | % Inhibition, single replicates (T. b. brucei GVR35-Luc2; 0.5 h): 100% and 97% | % Cell viability (T. b. brucei GVR35-Luc2; 0.5 h, average): 1.49% and 1.51% | % Inhibition (T. b. brucei GVR35-Luc2; 0.5 h, mean, suramin, fexinidazole, SCYX-7158 11 µM, CTCB-405 4 µM): 99% | % Cell viability, single replicates (T. b. brucei GVR35-Luc2; 1 h): -0.108% and -1% | % Inhibition, single replicates (T. b. brucei GVR35-Luc2; 1 h): 100% and 101% | % Inhibition (T. b. brucei GVR35-Luc2; 1 h, mean, suramin, fexinidazole, SCYX-7158 11 µM, CTCB-405 4 µM): 101% | % Cell viability, single replicates (T. b. brucei GVR35-Luc2; 2 h): -0.773% and 0.055% | % Inhibition, single replicates (T. b. brucei GVR35-Luc2; 2 h): 101% and 100% | % Cell viability (T. b. brucei GVR35-Luc2; 2 h, average): -0.345% and -0.359% | % Inhibition (T. b. brucei GVR35-Luc2; 2 h, mean, suramin, fexinidazole, SCYX-7158 11 µM, CTCB-405 4 µM): 100% | % Cell viability, single replicates (T. b. brucei GVR35-Luc2; 4 h): -0.741% and -0.843% | % Inhibition, single replicates (T. b. brucei GVR35-Luc2; 4 h): 101% | % Cell viability (T. b. brucei GVR35-Luc2; 4 h, average): -0.791% and 0% and -0.792% | % Inhibition (T. b. brucei GVR35-Luc2; 4 h, mean, suramin, fexinidazole, SCYX-7158 11 µM, CTCB-405 4 µM): 101% | % Cell viability, single replicates (T. b. brucei GVR35-Luc2; 6 h): -0.633% and -0.494% | % Inhibition, single replicates (T. b. brucei GVR35-Luc2; 6 h): 101% and 100% | % Cell viability (T. b. brucei GVR35-Luc2; 6 h, average): -0.563% and -0.564% | % Inhibition (T. b. brucei GVR35-Luc2; 6 h, mean, suramin, fexinidazole, SCYX-7158 11 µM, CTCB-405 4 µM): 101% | % Cell viability, single replicates (T. b. brucei GVR35-Luc2; 8 h): -0.333% and -0.376% | % Inhibition, single replicates (T. b. brucei GVR35-Luc2; 8 h): 100% | % Cell viability (T. b. brucei GVR35-Luc2; 8 h, average): -0.354% | % Inhibition (T. b. brucei GVR35-Luc2; 8 h, mean, suramin, fexinidazole, SCYX-7158 11 µM, CTCB-405 4 µM): 100% | % Cell viability, Average (T. b. brucei GVR35-Luc2; GVR35 TTK, 24 h incubation, average): -0.0941% | Luminescence (medium-subtracted), Average (T. b. brucei GVR35-Luc2; GVR35 TTK, 24 h incubation, average of replicates): -1 | % Inhibition (T. b. brucei GVR35-Luc2; GVR35 TTK, 24 h incubation, from average): 100% | % Cell viability, individual replicates (T. b. brucei GVR35-Luc2; [2]): -0.0906% and -0.0976% | % Inhibition, individual replicates (T. b. brucei GVR35-Luc2; [2]): 100% | Luminescence (medium-subtracted), individual replicates (T. b. brucei GVR35-Luc2; [2]): -8.5 and 6.5 | % Cell viability (T. b. brucei GVR35-Luc2; GVR35 TTK, 24 h sheet, summary line marked "4"): -0.0937% | Luminescence, Average (T. b. brucei GVR35-Luc2; 0.5 hour incubation): 184 | Luminescence, individual replicates (T. b. brucei GVR35-Luc2; 0.5 hour incubation): 76 and 293 | Luminescence, Average (T. b. brucei GVR35-Luc2; 1hour incubation): 41 | Luminescence, individual replicates (T. b. brucei GVR35-Luc2; 1hour incubation): 96 and -14 | Luminescence, Average (T. b. brucei GVR35-Luc2; 2hour incubation): 40 | Luminescence, individual replicates (T. b. brucei GVR35-Luc2; 2hour incubation): -17 and 96 | Luminescence, Average (T. b. brucei GVR35-Luc2; 4hour incubation): -33 | Luminescence, individual replicates (T. b. brucei GVR35-Luc2; 4hour incubation): -26 and -40 | Luminescence, Average (T. b. brucei GVR35-Luc2; 6hour incubation): -24 | Luminescence, individual replicates (T. b. brucei GVR35-Luc2; 6hour incubation): -47 and -1 | Luminescence, Average (T. b. brucei GVR35-Luc2; 8hour incubation): 13 | Luminescence, individual replicates (T. b. brucei GVR35-Luc2; 8hour incubation): 20 and 6 | Luminescence, Average (T. b. brucei GVR35-Luc2; 24hour incubation): -1 | Luminescence, individual replicates (T. b. brucei GVR35-Luc2; 24hour incubation): -8.5 and 6.5
